Tested on: C33A cells
Assay: Colony formation assay
Assay type: cell-based, human
Settings: 14 days culture, compared to blank control
Procedure: Cells treated with drugs were separately seeded in a 6-well plate and cultured continuously for 14 days. During this period, the culture medium was changed every 2-3 days. Once visible cell colonies formed, the culture medium was removed, and the cells were fixed with 4% paraformaldehyde for 30 minutes, followed by staining with 0.1% crystal violet for 30 minutes. Finally, the colonies were counted and photographed using an optical microscope.

Q: For N.N.[Cl][Pt][Cl] [cisplatin], which “number of C33A colonies, single agent” value is on record?
A: decreased
